# Data taken from patent US20250255781A1, “PROCESSES FOR PREPARATION OF 3-D PRINTED PHARMACEUTICAL PRODUCTS” (BRISTOL-MYERS SQUIBB COMPANY, priority 2022, published 2025).
# Test: Thermal gravimetric analysis (TGA) of thermal stability
# Type: physicochemical
# Settings: heated 25-500° C. at 10° C./min; degradation beyond
# Procedure: 2-2.5 mg of polymer and drug samples were carefully weighed and positioned in to a standard aluminium pan. The samples were heated from 25° C. to 500° C. at 10° C./min. The extracted raw data were analysed via TA Universal Analysis software (Universal Analysis 2000, version 4.5A, TA instruments, USA).
smiles,measurement,value
"CC(C)Cc1ccc(C(C)C(=O)O)cc1 (stereo not shown) [IBU, Ibuprofen]",thermally stable when heated up to (TGA),up to 140 °C
